Laboratory results published in patent US5736558A, “4-(6-fluoro-1,2-benzisoxazolyl)-1 piperidinyl-propoxy-chromen-4-one-one-derivatives, their preparation and their use in the treatment of psychosis, schizophrenia and anxiety” (Ferrer Internacional, S.A., priority 1995, dated 1998).
Where two headings read alike, the source gives them in different places.

Tests used:
[1] = biological target: T1, D2 receptors (Rattus norvegicus, UniProt P61169); test: Specific binding to D2 receptors ([3H]spiperone, rat striatum membrane)
T1 construct: membrane corresponding to 20 mg of rat striatum; from tissue; host or cells: rat striatum membrane
T1 sequence (P61169 whole entry): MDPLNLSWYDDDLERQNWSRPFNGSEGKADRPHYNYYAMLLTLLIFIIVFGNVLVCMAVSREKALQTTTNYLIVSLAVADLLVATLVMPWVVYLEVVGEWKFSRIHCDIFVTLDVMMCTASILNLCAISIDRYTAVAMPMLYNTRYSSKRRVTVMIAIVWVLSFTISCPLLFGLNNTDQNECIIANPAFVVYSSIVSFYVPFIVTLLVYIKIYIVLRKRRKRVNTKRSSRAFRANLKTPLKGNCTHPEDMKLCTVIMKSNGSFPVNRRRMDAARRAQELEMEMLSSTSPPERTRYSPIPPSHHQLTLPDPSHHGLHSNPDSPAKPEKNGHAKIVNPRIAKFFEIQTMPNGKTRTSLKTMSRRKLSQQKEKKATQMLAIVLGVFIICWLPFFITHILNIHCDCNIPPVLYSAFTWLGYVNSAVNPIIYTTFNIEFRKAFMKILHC
Procedure: D2 receptors: A 2-nM solution of radioactive spiperone ([^3 H]spiperone), which acts as a specific ligand, was incubated with the membrane corresponding to 20 mg of rat striatum for 20 min at 35° C. buffered at pH 7.4 with Tris.HCl. The non-specific binding was then determined by addition of a micromolar concentration of unlabelled spiperone. […] After the incubation was completed, the sample was filtered through a glass fiber filter and then washed three times with Tris.HCl buffer. The amount of receptor-bound radioactivity was retained on the membrane and determined by liquid scintillation counting.

[2] = biological target: T2, 5HT2 receptors (Rattus norvegicus, UniProt P14842); test: Specific binding to 5HT2 receptors ([3H]ketanserin, rat cortex membrane); details: 0.5 nM [3H]ketanserin, 30 min, 35° C., pH 7.4
T2 construct: membrane corresponding to 1 mg of rat cortex; from tissue; host or cells: rat cortex membrane
T2 sequence (P14842 whole entry): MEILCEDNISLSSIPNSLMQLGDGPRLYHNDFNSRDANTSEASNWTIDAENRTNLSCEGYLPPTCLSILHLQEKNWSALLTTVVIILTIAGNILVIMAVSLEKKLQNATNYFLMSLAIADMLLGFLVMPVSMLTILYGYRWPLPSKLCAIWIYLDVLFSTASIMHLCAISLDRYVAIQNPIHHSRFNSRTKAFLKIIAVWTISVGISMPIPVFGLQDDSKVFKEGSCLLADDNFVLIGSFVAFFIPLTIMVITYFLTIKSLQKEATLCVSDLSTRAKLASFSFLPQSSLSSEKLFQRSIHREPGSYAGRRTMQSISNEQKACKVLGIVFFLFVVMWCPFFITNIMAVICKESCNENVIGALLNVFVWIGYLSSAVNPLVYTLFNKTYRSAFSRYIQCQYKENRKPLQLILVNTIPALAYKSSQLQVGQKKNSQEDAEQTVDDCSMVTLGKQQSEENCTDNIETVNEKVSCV
Procedure: (§1) Specific binding to D2, 5HT2 and, 5HT1a receptors was tested as follows:
The amount of receptor-bound radioactivity was retained on the membrane and determined by liquid scintillation counting.
(§2) The biochemical results expressed as IC50 in molar concentrations are presented in Table 1 comparatively to the compound of Patent ES 9400581. A higher affinity of the present compounds to the three receptors is observed.

[3] = biological target: T3, 5HT1a receptors (Rattus norvegicus, UniProt P19327); test: Specific binding to 5HT1a receptors ([3H]5-OH-DPAT, rat cortex membrane)
T3 construct: membrane corresponding to 1 mg of rat cortex; from tissue; host or cells: rat cortex membrane
T3 sequence (P19327 1-422): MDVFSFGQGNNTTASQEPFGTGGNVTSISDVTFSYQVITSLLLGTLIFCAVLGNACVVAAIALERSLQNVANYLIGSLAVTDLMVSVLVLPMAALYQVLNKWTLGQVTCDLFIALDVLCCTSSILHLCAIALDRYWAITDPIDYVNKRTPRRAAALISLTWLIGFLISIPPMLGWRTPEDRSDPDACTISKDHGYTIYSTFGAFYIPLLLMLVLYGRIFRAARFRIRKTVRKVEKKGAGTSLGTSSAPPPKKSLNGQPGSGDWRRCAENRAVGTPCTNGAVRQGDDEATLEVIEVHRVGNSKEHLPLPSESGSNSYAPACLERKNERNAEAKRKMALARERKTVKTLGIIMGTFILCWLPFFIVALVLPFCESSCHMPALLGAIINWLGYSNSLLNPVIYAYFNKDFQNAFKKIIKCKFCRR
Procedure: as §1
5HT1a receptors: A 1 nM solution of radioactive […], which acts as a specific ligand, was incubated with the membrane corresponding to 1 mg of rat cortex for 20 min at 35° C. buffered at pH 7.4 with Tris.HCl.
Non-specific binding was then determined by addition of a 20 micromolar concentration of unlabelled buspirone. IC50 (inhibitory concentration 50%) was calculated from the inhibition rate of the specific binding obtained by addition of eleven different concentrations of the compounds to be tested. After the incubation was completed, the sample was filtered through a glass fiber filter and then washed three times with Tris.HCl buffer. The amount of receptor-bound radioactivity was retained on the membrane and determined by liquid scintillation counting.
as §2

[4] = tested on: apomorphine-induced climbing behaviour; test: Inhibition test of apomorphine-induced climbing behaviour; type: in vivo, male Swiss mice; details: Mus musculus, 1 h, read-out: ID50 Climbing
Procedure: The compounds were compared in Animal Pharmacology by the inhibition test of apomorphine-induced climbing behaviour
For the practical performance of this experiment, male Swiss mice weighing 22-24 g were used. One week prior to experiment, animals were kept in our facilities at a temperature of 20°-22° C. and 12/12 h light-dark cycle, and had free access to food and water. Two hours prior to experiment, the animals were placed in individual cages without access to food.
Animals were administered orally with test drug or 0.25% agar at time 0. After 60 minutes, apomorphine was subcutaneously injected at a dose of 1 mg/kg, and after further 70 minutes the animal's behaviour was assessed. Two additional assessments were performed at 10-min intervals.
For assessment, each animal was placed on the bottom of a small upright box (11×7.5×4.5 cm). The walls of the box were made of translucent methacrylate except one of the lateral surfaces (7.5 cm wide) which was a 3-mm wire mesh. The position of the animal was scored for 2 minutes according to the following criteria: 0=four paws on the floor; 1=three paws on the floor; 2=two paws on the floor; 3=one paw on the floor; and 4=four paws holding the wire mesh. If an animal keeps several positions within the 2-min observation, the seconds elapsed in each position will be recorded. Finally, mean scoring was calculated.

[5] = in vivo; details: rat, po
[6] = 1 nM [3H]5-OH-DPAT, rat cortex, 20 min, 35° C., pH 7.4, read-out: IC50 5HT1a
[7] = oral, mice, apomorphine 1 mg/kg s.c. after 60 min

SMILES | IC50 ([1]; 2 nM [3H]spiperone, rat striatum, 20 min, 35° C., pH 7.4, read-out: IC50 D2) [nM] | IC50 [2] [nM] | IC50 [3, 6] [nM] | ED50 [4, 7] [mg/kg] | ED50 [5] [mg/kg] | selectivity ratio [5] | IC50 [1] [nM] | IC50 [3] [nM] | ED50 ([4]; po) [mg/kg]
O=c1ccoc2cc(OCCCN3CCC(c4noc5cc(F)ccc45)CC3)ccc12 [Ex. 1, 7-[3-[4-(6-fluoro-1,2-benzisoxazole-3-yl)piperidin-1-yl]propoxy]chromen-4-one] | 30 | 11.2 | 383 | 2.7 | 11.2 | 4.17 |  |  | 
Cc1coc2cc(OCCCN3CCC(c4noc5cc(F)ccc45)CC3)ccc2c1=O [Ex. 2, 7-[3-[4-(6-fluoro-1,2-benzisoxazole-3-yl)piperidin-1-yl]propoxy]-3-methyl-chromen-4-one] |  | 11.3 | 249 | 0.4 | 2.9 | 7.25 |  |  | 
O=c1c(CO)coc2cc(OCCCN3CCC(c4noc5cc(F)ccc45)CC3)ccc12 [Ex. 3, 7-[3-[4-(6-fluoro-1,2-benzisoxazole-3-yl)piperidin-1-yl]propoxy]-3-(hydroxymethyl)-chromen-4-one] |  | 4.71 |  |  | 3.8 | 15.2 | 11.6 | 152 | 0.25
